Results taken from PubChem BioAssay AID434954 (Broad Institute, 2010).
The source made the active and inactive calls.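 Rule for the calls: active = IC50 at or below a set limit above the highest tested dose; inconclusive = flat curve with 30 to 70% inhibition, or poor fit; inactive = the rest.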

Molecular target: Glycogen synthase kinase-3 beta (Homo sapiens) (UniProt P49841)
Experiment: GSK3beta kinase inhibitor potency, dose response, biochemical, luminescence, cell-free homogeneous, retest (AID 434954)
Details: recombinant GSK3beta, ADP-Glo luminescence, 60 min

Glycogen synthase kinase-3 beta (Homo sapiens), sequence (P49841 whole entry, looked up): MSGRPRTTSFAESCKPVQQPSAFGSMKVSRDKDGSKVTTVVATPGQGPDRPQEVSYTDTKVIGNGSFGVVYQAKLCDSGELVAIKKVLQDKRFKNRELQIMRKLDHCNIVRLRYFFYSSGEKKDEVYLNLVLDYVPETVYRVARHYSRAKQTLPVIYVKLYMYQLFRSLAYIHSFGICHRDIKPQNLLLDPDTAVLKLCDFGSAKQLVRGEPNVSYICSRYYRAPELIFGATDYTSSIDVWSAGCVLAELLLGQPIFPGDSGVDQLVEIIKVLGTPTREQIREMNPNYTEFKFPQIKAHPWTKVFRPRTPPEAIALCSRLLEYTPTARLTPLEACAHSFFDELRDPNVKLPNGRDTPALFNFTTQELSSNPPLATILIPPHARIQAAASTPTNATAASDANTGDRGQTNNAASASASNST

Compound	IC50
COc1cccc(C2C3=C(CCCC3=O)Nc3[nH]n(-c4ccccc4)c(=O)c32)c1 (stereo unspecified)	> 30 µM (inactive)
Nc1ncnc2c1ncn2[C@@H]1O[C@H](CO)[C@@H](O)[C@@H]1O	> 30 µM (inactive)
Oc1ccc(/C=N/Nc2ncnc3nc[nH]c23)cc1	> 30 µM (inactive)
Cc1[nH]nc2c1C(c1cccs1)C1=C(CC(C)(C)CC1=O)N2 (stereo unspecified)	1.36 µM
COc1ccc(OC)c(C2Nc3ccccc3NC3=C2C(=O)CC(C)(C)C3)c1 (stereo unspecified)	> 30 µM (inactive)
COc1cccc(C2Nc3ccccc3NC3=C2C(=O)CC(C)(C)C3)c1 (stereo unspecified)	> 30 µM (inactive)
CCCCOC(=O)C1=C(C)Nc2ncnn2C1c1cc(OC)c(OC)cc1OC (stereo unspecified)	> 30 µM (inactive)
CCOc1cc(C2C(C(=O)N3CCCCC3)=C(C)NC3=C2C(=O)CC(C)(C)C3)ccc1O (stereo unspecified)	> 30 µM (inactive)
Fc1ccccc1/C=N/Nc1ncnc2nc[nH]c12	11.2 µM
COC(=O)c1ccc(N2C(=O)CC(N3CCN(C(=O)c4ccco4)CC3)C2=O)cc1 (stereo unspecified)	> 30 µM (inactive)
CCCCCCn1c(O)c(C=NCCCn2ccnc2)c(=O)[nH]c1=O	14.3 µM
CCOC(=O)C1=C(C)Nc2ncnn2C1c1ccccc1F (stereo unspecified)	> 30 µM (inactive)
N#CC(=C=[N-])c1nc2ccccc2nc1-[n+]1cccc(NC(=O)c2ccccc2)c1	> 30 µM (inactive)
CCCCOC(=O)C1=C(C)Nc2ncnn2C1c1cccc(OC)c1OC (stereo unspecified)	4.25 µM
O/N=C/c1ccc(OCc2ccccc2)c(Cl)c1	> 30 µM (inactive)
COc1ccc(-c2nn(-c3ccccc3)cc2/C=N/Nc2ccccn2)cc1	> 30 µM (inactive)
Nc1ncnc2c1ncn2[C@@H]1O[C@H](CO)[C@@H](O)[C@H]1O	> 30 µM (inactive)
O/N=C/c1cn(-c2ccccc2)nc1-c1ccccc1	26 µM
Cc1c(C#N)c(O)[nH]c(=O)c1N=Nc1ccc(Br)cc1C(=O)O	> 30 µM (inactive)
O=C1CCCC2=C1C(c1cccs1)Nc1ccccc1N2 (stereo unspecified)	> 30 µM (inactive)
O=C(CC1SC(N2CCCCC2)=NC1=O)Nc1cccc(C(F)(F)F)c1 (stereo unspecified)	> 30 µM (inactive)
CCN(CC)S(=O)(=O)c1cccc(N2CC(O)=C(c3ccccc3)C2=N)c1	> 30 µM (inactive)
CC1=C(C(=O)OCc2ccccc2)C(c2ccccc2OC(F)F)NC(=O)N1 (stereo unspecified)	4.4 µM
Cc1ccsc1/C=N/Nc1ncnc2nc[nH]c12	9 µM
O=C(O)c1ccc(-c2ccc(/C=N/Nc3ccc([N+](=O)[O-])cc3)o2)cc1	> 30 µM (inactive)
Nc1nc(F)nc2c1ncn2[C@@H]1O[C@H](CO)[C@@H](O)[C@@H]1O	> 30 µM (inactive)

Compound	IC50
CC(C)Sc1nc2c(c(=O)[nH]1)C(c1cccs1)C1=C(CC(C)(C)CC1=O)N2 (stereo unspecified)	> 30 µM (inactive)
COc1cc(/C=N\Nc2ccc([N+](=O)[O-])cc2)ccc1OCC(=O)Nc1ccc(C)c(C)c1	> 30 µM (inactive)
COc1cc(CN=Cc2c(O)n(C(C)(C)C)c(=O)[nH]c2=O)cc(OC)c1	> 30 µM (inactive)
CCCCCOC(=O)C1=C(C)Nc2ncnn2C1c1cccs1 (stereo unspecified)	> 30 µM (inactive)
CC1(C)CC(=O)C2=C(C1)Nc1ccccc1NC2c1cccs1 (stereo unspecified)	> 30 µM (inactive)
O=C1CCCC2=C1C(c1cccs1)n1nc(SCc3ccccc3)nc1N2 (stereo unspecified)	> 30 µM (inactive)
N#CCCn1cc(/C=N/O)c(-c2ccc(-c3ccccc3)cc2)n1	> 30 µM (inactive)
COc1ccc(C2CC(=O)C3=C(C2)Nc2ncnn2C3c2ccccc2C)cc1 (stereo unspecified)	> 30 µM (inactive)
O=C(N/N=C/c1ccc(O)c(O)c1)N/N=C/c1ccc(O)c(O)c1	13.3 µM
CC1=C(C(=O)OCC2CCCO2)C(c2ccc(O)cc2)NC(=O)N1 (stereo unspecified)	> 30 µM (inactive)
CC1(C)CC(=O)C2=C(C1)Nc1cc3c(cc1C2c1ccc(F)cc1)OCO3 (stereo unspecified)	> 30 µM (inactive)
Oc1ccccc1/C=N/Nc1nn[nH]n1	> 30 µM (inactive)
Cc1[nH]nc2c1C(c1cccs1)C1=C(CCCC1=O)N2 (stereo unspecified)	10.6 µM
O=C(O)c1ccc(/C=N/Nc2ccc(C(F)(F)F)cn2)cc1	20.4 µM
COc1ccc(C2C(C(C)=O)=C(O)C(=O)N2c2nccs2)c(OC)c1 (stereo unspecified)	> 30 µM (inactive)
O=C(O)c1ccc(N=Nc2c(O)[nH]c3cc(Cl)ccc23)cc1	19.1 µM
Nc1ncnc2c1ncn2[C@@H]1O[C@H](COP(=O)(O)O)[C@@H](O)[C@H]1O	> 30 µM (inactive)
CN=C(C)/C(C(=O)OC)=C(/O)c1ccc(Cl)cc1Cl	> 30 µM (inactive)
Oc1ccc(/C=N/Nc2ccc(C(F)(F)F)cn2)cc1O	16.1 µM
CCCC1=C(C(=O)OCC)C(c2sccc2C)n2ncnc2N1 (stereo unspecified)	> 30 µM (inactive)
O=C(O)c1ccc(N/N=C/c2ccc(-c3cccc(Cl)c3)o2)cc1	> 30 µM (inactive)
CCOc1cc(C2Nc3ccccc3NC3=C2C(=O)CC(C)(C)C3)ccc1O (stereo unspecified)	> 30 µM (inactive)
Cc1[nH]nc2c1C(c1ccc(O)cc1)C1=C(CC(C)(C)CC1=O)N2 (stereo unspecified)	2.06 µM
O=C(O)Cn1cc(/C=N/Nc2ccc([N+](=O)[O-])cn2)c2ccccc21	8.24 µM
NS(=O)(=O)c1ccc(N=Nc2c(O)[nH]c3ccc(Br)cc23)cc1	> 30 µM (inactive)
CC1=C(C(=O)OCC2CCCO2)C(c2ccsc2)C2=C(CC(C)(C)CC2=O)N1 (stereo unspecified)	> 30 µM (inactive)

Compound	IC50
O=C(O)c1cc(N/N=C/c2ccc(-c3ccc(F)cc3)o2)ccc1Cl	> 30 µM (inactive)
CCOC(=O)C1=C(C)Nc2ncnn2C1/C=C/c1ccccc1 (stereo unspecified)	> 30 µM (inactive)
Cc1ccc2c(c1)NC(c1cccs1)C1=C(CC(C)(C)CC1=O)N2 (stereo unspecified)	> 30 µM (inactive)
Cc1ccc(C2C3=C(CC(C)(C)CC3=O)Nc3[nH]c(=S)[nH]c(=O)c32)cc1 (stereo unspecified)	> 30 µM (inactive)
CC1=C(C(=O)OCc2ccccc2)C(c2cccnc2)n2ncnc2N1 (stereo unspecified)	28 µM
Cc1cc(-c2[nH]nc3c2C(c2cccc(O)c2)C(C#N)=C(N)O3)c(C)s1 (stereo unspecified)	25.4 µM
Cc1c(C=Nc2ccc(S(=O)(=O)N(C)C)cc2)c(O)[nH]c(=O)c1C#N	> 30 µM (inactive)
CC1=C(C(N)=O)C(c2sccc2C)n2nnnc2N1 (stereo unspecified)	> 30 µM (inactive)
Cc1ccc(C2C3=C(CC(C)(C)CC3=O)Nc3onc(C)c32)cc1 (stereo unspecified)	> 30 µM (inactive)
O=C(NCCCN1CCCC1=O)c1c(O)nc2sccn2c1=O	> 30 µM (inactive)
COc1cccc(C2C3=C(CC(C)(C)CC3=O)Nc3cc4c(cc32)OCO4)c1 (stereo unspecified)	> 30 µM (inactive)
CC1=C(C(=O)N2CCCCC2)C(c2cccs2)C2=C(CCCC2=O)N1 (stereo unspecified)	> 30 µM (inactive)
COc1cccc(C2C(C#N)=C(C)NC3=C2C(=O)CC(C)(C)C3)c1 (stereo unspecified)	> 30 µM (inactive)
CCOc1ccc(N2C(=O)C(Cl)=C(Nc3ccccc3O)C2=O)cc1	> 30 µM (inactive)
CC[n+]1c(/C=C/Nc2ccccc2)sc2ccccc21	> 30 µM (inactive)
CC1=C(C#N)C(c2ccc(O)cc2)C2=C(CC(C)(C)CC2=O)N1 (stereo unspecified)	> 30 µM (inactive)
O=c1[nH]c(=O)n(CCc2ccc(F)cc2)c(O)c1/C=N/N1CCCCC1	> 30 µM (inactive)
CCOC(=O)C1=C(C)Nc2ncnn2C1c1cc(Br)ccc1F (stereo unspecified)	24 µM
O=C(O)CC1S/C(=N/N=C/c2ccc(-c3ccc(Cl)c([N+](=O)[O-])c3)o2)NC1=O (stereo unspecified)	> 30 µM (inactive)
O/N=C/c1cn(-c2ccccc2)nc1-c1cccnc1	6.45 µM
C/C(=N\Nc1nccnc1Cl)c1ccc(Br)cc1	> 30 µM (inactive)
CCOC(=O)C1=C(C)Nc2ncnn2C1c1ccc(N(C)C)cc1 (stereo unspecified)	> 30 µM (inactive)
C=CCOc1ccc(/C=N/Nc2ccccn2)cc1OC	> 30 µM (inactive)
Cc1cc(=O)[nH]c(N/N=C/c2ccc(-c3ccc([N+](=O)[O-])cc3)o2)n1	> 30 µM (inactive)
CCOC(=O)C1=C(C)Nc2ncnn2C1c1cc(OC)ccc1OC (stereo unspecified)	> 30 µM (inactive)
Cc1[nH]nc2c1C(c1ccc(N(C)C)cc1)C1=C(CC(C)(C)CC1=O)N2 (stereo unspecified)	28 µM

Compound	IC50
Oc1[nH]c2ccccc2c1C=Nc1ccc2c(c1)OCO2	11.4 µM
COc1ccc(C2C(C#N)=C(C)NC3=C2C(=O)CC(C)(C)C3)cc1 (stereo unspecified)	> 30 µM (inactive)
COc1cc(/C=N/Nc2nc(Nc3ccccc3)nc(N3CCCCC3)n2)ccc1OCC(=O)O	> 30 µM (inactive)
COc1cc(C2C(C#N)=C(C)NC3=C2C(=O)CC(C)(C)C3)ccc1O (stereo unspecified)	> 30 µM (inactive)
CC1(C)CC(=O)C2=C(C1)Nc1ccccc1NC2c1ccc(F)cc1 (stereo unspecified)	> 30 µM (inactive)
Nc1ncnc2c1ncn2C1OC(COP(=O)(O)O)C(O)C1O (stereo unspecified)	> 30 µM (inactive)
O=C1CC(SC(=Nc2ccccc2)Nc2ccccc2)C(=O)N1c1cccc2ccccc12 (stereo unspecified)	> 30 µM (inactive)
CCOC(=O)c1sc2c(c1C)C(c1cccs1)C1=C(CCCC1=O)N2 (stereo unspecified)	> 30 µM (inactive)
COc1cc(/C=N/Nc2ccc([N+](=O)[O-])cn2)cc(OC)c1O	5.41 µM
CC1(C)CC(=O)C2=C(C1)NC1=C(C(=O)c3ccccc31)C2c1ccc(O)cc1 (stereo unspecified)	> 30 µM (inactive)
CCOC(=O)C1=C(CN2CCSCC2)NC(=O)NC1c1cc(C)ccc1C (stereo unspecified)	> 30 µM (inactive)
Cc1noc2c1C(c1ccc(N(C)C)cc1)C1=C(CC(C)(C)CC1=O)N2 (stereo unspecified)	> 30 µM (inactive)
Oc1ccc(/C=N/Nc2ncc(Br)cn2)c(O)c1	12.3 µM
CSc1nsc(/C=C/Nc2ccc(Cl)cc2)c1C#N	> 30 µM (inactive)
COc1ccc(C2C3=C(CC(C)(C)CC3=O)Nc3n[nH]c(C)c32)cc1 (stereo unspecified)	28.3 µM
COc1ccc(-c2c(C)n([O-])c(C)c(C)[n+]2=O)cc1	> 30 µM (inactive)
Cc1ccccc1CSc1nc2n(n1)C(c1cccs1)C1=C(CCCC1=O)N2 (stereo unspecified)	> 30 µM (inactive)
Fc1cccc(/C=N/Nc2ncnc3nc[nH]c23)c1	11.9 µM
CCOC(=O)C1=C(C(F)(F)F)Nc2ncnn2C1c1cc(OC)ccc1OC (stereo unspecified)	> 30 µM (inactive)
CC1=C(C(=O)OC(C)C)C(c2c[nH]c3ccccc23)n2ncnc2N1 (stereo unspecified)	1.81 µM
COc1cc(C2C3=C(CC(C)(C)CC3=O)Nc3c2c(=O)[nH]c(=O)n3Cc2ccccc2)ccc1O (stereo unspecified)	> 30 µM (inactive)
CCCC1=C(C(=O)OCC)C(c2ccco2)n2ncnc2N1 (stereo unspecified)	17.4 µM
COc1ccc(/C=N/Nc2ccc([N+](=O)[O-])cc2)cc1O	> 30 µM (inactive)
